This is an account of results in patent US5143918A, “Halomacrolides and derivatives having immunosuppressive activity” (Merck & Co., Inc., priority 1991, dated 1992).

The subject of one experiment is T lymphocytes (T-cells). In words: T-Cell Proliferation Assay (tritiated thymidine uptake). Type of experiment: cell-based, C57B1/6 mice. The settings on record: mouse spleen T lymphocytes, ionomycin 250 ng/ml and PMA 10 ng/ml, 44 h culture + 4 h tritiated thymidine, read-out: IC50 (concentration of compound required to inhibit tritiated thymidine uptake / proliferation of T-cells by 50%). As for the experimental part:
T-Cell Proliferation Assay
The compounds to be assayed were dissolved in absolute ethanol at 1 mg/ml.
Spleens from C57B1/6 mice were taken under sterile conditions and gently dissociated in ice-cold RPMI 1640 culture medium (GIBC), Grand Island, N.Y.) supplemented with 10% heat-inactivated fetal calf serum (GIBO)). Cells were pelleted by centrifugation at 1500 rpm for 8 minutes. Contaminating red cells were removed by treating the pellet with ammonium chloride lysing buffer (GIBO)) for 2 minutes at 4° C. Cold medium was added and cells were again centrifuged at 1500 rpm for 8 minutes. T lymphocytes were then isolated by separation of the cell suspension on nylon wool columns as follows: Nylon wool columns were prepared by packing approximately 4 grams of washed and dried nylon wool into 20 ml plastic syringes. The columns were sterilized by autoclaving at […]. for 30 minutes. Nylon wool columns were wetted with warm (37° C.) culture medium and rinsed with the same medium. Washed spleen cells resuspened in warm medium were slowly applied to the nylon wool. The columns were then incubated in an upright position at 37° C. for 1 hour. Non-adherent T lymphocytes were eluted from the columns with warm culture medium and the cell suspensions were spun as above.
Purified T lymphocytes were resuspended at 2.5×10^5 cells/ml in complete culture medium composed of RPMI 1640 medium with 10% heat-inactivated fetal calf serum, […], 1 mM sodium pyruvate, 2×10^-5 M 2-mercaptoethanol and 50 μg/ml gentamycin. Ionomycin was added at 250 ng/ml and PMA at 10 ng/ml. The cell suspension was immediately distributed into 96 well flat-bottom microculture plates (Costar) at 200 μl/well. The various dilutions of the compound to be tested were then added in triplicate wells at 20 ul/well. The compound 17-allyl-1,14-dihydroxy-12-[2'-(4"-hydroxy-3"-methoxycyclohexyl)-1'-methylvinyl]-23,25-dimethoxy-13,19,21,27-tetramethyl-11,28-dioxa-4-azatricyclo[22.3.1.0^4,9 ]octacos-18-ene-2,3,10,16-tetraone was used as a standard. The culture plates were then incubated at 37° C. in a humidified atmosphere of 5% CO2 -95% air for 44 hours. The proliferation of T lymphocytes was assessed by measurement of tritiated thymidine incorporation. After 44 hours of culturing, the cells were pulse-labelled with 2 μCi/well of tritiated thymidine (NEN, Cambridge, Mass.). After another 4 hours of incubation, cultures were harvested on glass fiber filters using a multiple sample harvester. Radio activity of filter discs corresponding to individual wells was measured by standard liquid scintillation counting methods (Betacounter). Mean counts per minute of replicate wells were calculated and the results expressed as concentration of compound required to inhibit tritiated thymidine uptake of T-cells by 50%.
A selection of compounds were tested according to the previous procedure. The concentration of compound required to inhibit the proliferation of T-cells by 50% was measured, and the results were as follows: […]

Another experiment relates to in vitro immune systems. Conditions: versus cyclosporin; J. Antibiotics 1987, 40, 1256; cited from earlier work.

pIC50: −log10 of the molar value. Where two headings read alike, the source gives them in different places. Some results are limits rather than exact numbers.

For “17-Ethyl-1-hydroxy-12-[2'-(3"-chloro-4"-hydroxycyclohexyl)-1'-methylvinyl]- 23,25-dimethoxy-13,19,21,27-tetramethyl-11,28-dioxa-4-azatricyclo[22.3.1.0^4,9 ]octacos-18-ene-2,3,10,16-tetraone [Example 87]”, the pIC50 in the experiment with T lymphocytes (T-cells) is > 6.00. `CCC1C=C(C)CC(C)CC(OC)C2OC(O)(C(=O)C(=O)N3CCCCC3C(=O)OC(C(C)=CC3CCC(Cl)C(OC)C3)C(C)CCC1=O)C(C)CC2OC` (stereo not drawn) [Example 40, 17-Ethyl-1-hydroxy-12-[2'-(4"-beta-chloro-3"-methoxycyclohexyl)-1'-methylvinyl]-23,25-dimethoxy-13,19,21,27-tetramethyl-11,28-dioxa-4-azatricyclo-[22.3.1.0^4,9]octacos-18-ene-2,3,10,16-tetraone]: the pIC50 in the experiment on T lymphocytes (T-cells) (T-cell) is > 6.00. On the same count and under the same terms, in the case of `CCC1C=C(C)CC(C)CC(OC)C2OC(O)(C(=O)C(=O)N3CCCCC3C(=O)OC(C(C)=CC3CCC(Cl)C(OC)C3)C(C)C(O)CC1=O)C(C)CC2OC` (stereo not drawn) [Example 53, 17-Ethyl-1,14-dihydroxy-12-[2'-(4"-beta-chloro-3"-methoxycyclohexyl)-1'-methylvinyl]-23,25-dimethoxy-13,19,21,27-tetramethyl-11,28-dioxa-4-azatricyclo[22.3.1.0^4,9]octacos-18-ene-2,3,10,16-tetraone] it was > 6.00; in that of `CCC1C=C(C)CC(C)CC(OC)C2OC(O)(C(=O)C(=O)N3CCCCC3C(=O)OC(C(C)=CC3CCC(Br)C(OC)C3)C(C)C(O)CC1=O)C(C)CC2OC` (stereo not drawn) [Example 56, 17-Ethyl-1,14-dihydroxy-12-[2'-(4"-beta-bromo-3"-methoxycyclohexyl)-1'-methylvinyl]-23,25-dimethoxy-13,19,21,27-tetramethyl-11,28-dioxa-4-azatricyclo[22.3.1.0^4,9]octacos-18-ene-2,3,10,16-tetraone], > 6.00.

Turning to `CCC1C=C(C)CC(C)CC(OC)C2OC(O)(C(=O)C(=O)N3CCCCC3C(=O)OC(C(C)=CC3CCC(I)C(OC)C3)C(C)C(O)CC1=O)C(C)CC2OC` (stereo not drawn) [Example 59, 17-Ethyl-1,14-dihydroxy-12-[2'-(4"-beta-iodo-3"-methoxycyclohexyl)-1'-methylvinyl]-23,25-dimethoxy-13,19,21,27-tetramethyl-11,28-dioxa-4-azatricyclo-[22.3.1.0^4,9]octacos-18-ene-2,3,10,16-tetraone], the pIC50 with T lymphocytes (T-cells) was > 6.00.

In the case of `CCC1C=C(C)CC(C)CC(OC)C2OC(O)(C(=O)C(=O)N3CCCCC3C(=O)OC(C(C)=CC3CCC(F)C(OC)C3)C(C)C(O)CC1=O)C(C)CC2OC` (centres unmarked) [Example 62, 17-Ethyl-1,14-dihydroxy-12-[2'-(4"-fluoro-3"-methoxycyclohexyl)-1'-methylvinyl]-23,25-dimethoxy-13,19,21,27-tetramethyl-11,28-dioxa-4-azatricyclo-[22.3.1.0^4,9]octacos-18-ene-2,3,10,16-tetraone], the pIC50 with T lymphocytes (T-cells) (T-cell) was > 6.00. On the same count and under the same terms, in the case of `CCC1C=C(C)CC(C)CC(OC)C2OC(O)(C(=O)C(=O)N3CCCCC3C(=O)OC(C(C)=CC3CCC(O)C(Br)C3)C(C)CCC1=O)C(C)CC2OC` (centres unmarked) [Example 89, 17-Ethyl-1-hydroxy-12-[2'-(3"-bromo-4"-hydroxycyclohexyl)-1'-methylvinyl]-23,25-dimethoxy-13,19,21,27-tetramethyl-11,28-dioxa-4-azatricyclo[22.3.1.0^4,9]octacos-18-ene-2,3,10,16-tetraone] it was > 6.00. In the case of `C=CCC1C=C(C)CC(C)CC(OC)C2OC(O)(C(=O)C(=O)N3CCCCC3C(=O)OC(C(C)=CC3CCC(O)C(OC)C3)C(C)C(O)CC1=O)C(C)CC2OC` (centres unmarked) [FR-900506, 17-allyl-1,14-dihydroxy-12-[2'-(4"-hydroxy-3"-methoxycyclohexyl)-1'-methylvinyl]-23,25-dimethoxy-13,19,21,27-tetramethyl-11,28-dioxa-4-azatricyclo-[22.3.1.0^4,9]octacos-18-ene-2,3,10,16-tetraone], the “times more effective than cyclosporin in the suppression of in vitro immune systems” value with in vitro immune systems is given as 100 times.
